Patent publication US20230111910A1, “PD-1/PD-L1 INHIBITOR, PREPARATION METHOD THEREFOR, AND USE THEREOF” (SHANGHAI SYNERGY PHARMACEUTICAL SCIENCES CO., LTD., priority 2020, published 2023)
Where a name gives a salt, the structure may show the parent alone. Read-outs that look alike come from different tables or passages of the source.

Columns and labels:
ICR mice = assay: Acute toxicity test in mice, single dose, 14 days observation; type: in vivo; details: within 14 days from administration
Procedure: (§1) This experiment aims to test the toxic effects of the compounds in mice.
(§2) ICR mice, SPF grade, 6-8 weeks old, half male and half […], purchased from Sippe-Bk Lab Animal Co., Ltd., Shanghai, license number SCXK (Shanghai) 2018-0006, animal certificate number: 20180006010983.
(§3) ICR mice were administered different doses of compounds at a single time, and were continuously observed for 14 days. The animal death, poisoning reaction, body weight change, diet, appearance, behavior, etc. were recorded. At the end point, the animals were dissected, and the organs were taken for histopathological examination.

[1] = as above; type: in vivo; details: both sexes, mouse, in vivo; ICR mice, single administration; read-out: median lethal dose (LD50)
Procedure: as §1, §2, §3

[2] = test system: mouse colon cancer MC38-hPD-L1; assay: In vivo efficacy in mice, MC38-hPD-L1 subcutaneous tumor model; details: 50 mg/kg i.g., twice a day, MC38-hPD-L1 in C57BL/6 mice
Description: Under sterile conditions, mouse colon cancer MC38-hPD-L1 in logarithmic growth phase was digested into single cells and then transplanted into the right back of C57BL/6 mice subcutaneously. Each mouse was inoculated with 1×10^6 cells in a volume of […] (μL). After inoculation, when the tumor grows to 100 cubic millimeters (mm^3), the mice were randomly divided into 9 groups, with 8 mice in each group, for drug efficacy experiments. The positive control was human programmed death receptor ligand (PD-L1) antibody. The negative control group was given the same amount of vehicle.
C57BL/6 mice, SPF grade, 6-8 weeks old, female, purchased from Beijing Vital River Laboratory Animal Technology Co., Ltd., license number SCXK […] 2017-0011, animal certificate number: 20170011003865.
An appropriate amount of compound was weighted, dissolved in 5% dimethyl sulfoxide (DMSO), subjected to vortex and sonication, added with 0.5% sodium carboxymethyl cellulose (CMC-Na), and sonicated, to prepare a solution of 5 mg per milliliter (mg/mL).

[3] = Pharmacokinetic experiment in rats, LC/MS/MS; type: in vivo; details: SD rats; for AUC: read-out: Area under the curve (AUC, ng/mL.h)
Procedure: Taking SD rats as an example, the drug concentrations in the plasma of rats at different times after i.g. and i.v. administration of compounds of Examples 1, 5, 6, 8, 12, 13, 15, 18, 19, 22, 25, 27 and 29, respectively, were determined by the liquid chromatography-tandem mass spectrometry (LS/MS/MS) method, and the relevant pharmacokinetic parameters were calculated to evaluate the pharmacokinetic properties of example compounds of the present invention in rats.
Healthy adult SD rats, SPF grade, male, purchased from Sippe-Bk Lab Animal Co., Ltd., Shanghai, license number SCXK (Shanghai) 2018-0006, animal certificate number: 20180006006321.
A certain amount of compound was weighed, dissolved in 5% dimethyl sulfoxide (DMSO), subjected to vortex and sonication, added with 0.5% sodium carboxymethyl cellulose (CMC-Na), and sonicated, to prepare a homogeneous solution.
Before administration and 5 min, 15 min, 0.5 h, 1 h, 2 h, 4 h, 6 h, 8 h and 24 h after administration, orbital blood was collected, 0.2 milliliters (mL) of blood being collected each time, and placed in an anticoagulant tube, mixed well, and stored in a −20° C. refrigerator for later use.
The content of the compound in rat whole blood was determined by liquid chromatography-tandem mass spectrometry (LS/MS/MS).
The pharmacokinetic parameters of the compounds after administration were calculated using the non-compartmental model of WinNonLin5.3 software.

Structure (SMILES) | body weight and behavior compared with control group (ICR mice) | LD50 at 14 days [1] [mg/kg] | Tumor growth inhibition rate [2] [%] | also measured
Cc1c(NC(=O)c2nc3c(s2)CN(C)CC3)cccc1-c1cccc(-c2nc3cc(CN4CC[C@@H](C(=O)O)C4)cnc3o2)c1C [Example 4, (R)-1-(((2-(2,2′-dimethyl-3′-(5-methyl-4,5,6,7-tetrahydrothiazolo[5,4-c]pyridine-2-carboxamido))-[1,1′-biphenyl]-3-yl)oxazolo[5,4-b]pyridin-6-yl)methyl)pyrrolidine-3-carboxylic acid] | no abnormal body weight or behavior | > 1000 | 82 | –
Cc1c(NC(=O)c2nc3c(s2)CN(C)CC3)cccc1-c1cncc(-c2nc3cc(CN4CC[C@@H](C(=O)O)C4)cc(Cl)c3o2)c1C [Example 9] | no abnormal body weight or behavior | > 1000 | 78 | –
Cc1c(Nc2nccc3cc(CN4CC[C@@H](O)C4)cnc23)cccc1-c1cncc(-c2nc3cc(CN4CC[C@@H](C(=O)O)C4)cc(Cl)c3o2)c1C [Example 11, (R)-1-(((7-chloro-2-(5-(3-((3-((((R)-3-hydroxypyrrolidin-1-yl)methyl)-1,7-naphthyridin-8-yl)amino)-2-methylphenyl)-4-methylpyridin-3-yl)benzo[d]oxazol-5-yl)methyl)pyrrolidine-3-carboxylic acid trifluoroacetate] | no abnormal body weight or behavior | > 1000 | 85 | –
Cc1c(NC(=O)c2nc3c(n2C)CCN(CC(C)O)C3)cccc1-c1nccc(NC(=O)c2nc3c(n2C)CCN(C)C3)c1Cl (stereo not shown) [Example 15] | – | – | 86 | Area under the curve (AUC, ng/mL.h) ([3]; i.v., 2 mg/kg): 599.36 ng·h/mL; Half life (T1/2, h) ([3]; i.v., 2 mg/kg): 1.76 h; Bioavailability (F%) ([3]; p.o. 10 mg/kg vs i.v. 2 mg/kg): 58%; Area under the curve (AUC, ng/mL.h) ([3]; p.o. (i.g.), 10 mg/kg): 1618.28 ng·h/mL; Blood concentration (Cmax, ng/mL) ([3]; p.o. (i.g.), 10 mg/kg): 377.6 ng/mL
Cc1c(NC(=O)c2nc3c(n2C)CCN(C[C@H](C)O)C3)cncc1-c1cccc(NC(=O)c2nc3c(n2C)CCN(C2COC2)C3)c1Cl [Example 23, (S)—N-(5-(2-chloro-3-(1-methyl-5-(oxetan-3-yl)-4,5,6,7-tetrahydro-1H-imidazo[4,5-c]pyridine-2-carboxamido)phenyl)-4-methylpyridin-3-yl)-5-(2-hydroxypropyl)-1-methyl-4,5,6,7-tetrahydro-1H-imidazo[4,5-c]pyridine-2-carboxamide] | – | – | 81 | –
CCN1CCc2c(nc(C(=O)Nc3cncc(-c4cccc(NC(=O)c5nc6c(n5C)CCN(CC)C6)c4Cl)c3C)n2C)C1 [Example 27, N-(2-chloro-3-(5-(5-ethyl-1-methyl-4,5,6,7-tetrahydro-1H-imidazo[4,5-c]pyridine-2-carboxamido)-4-methylpyridin-3-yl)phenyl)-5-ethyl-1-methyl-4,5,6,7-tetrahydro-1H-imidazo[4,5-c]pyridine-2-carboxamide] | – | – | 80 | AUC ([3]; male, rat, whole blood, iv, i.v., 2 mg/kg): 637 ng·h/mL; half-life ([3]; male, rat, whole blood, iv, i.v., 2 mg/kg, read-out: Half life (T1/2, h) (converted)): 2.26 h; bioavailability ([3]; male, rat, whole blood, po, p.o. 10 mg/kg vs i.v. 2 mg/kg, read-out: Bioavailability (F%)): 46%; AUC ([3]; male, rat, whole blood, po, p.o. (i.g.), 10 mg/kg): 1460 ng·h/mL; Cmax ([3]; male, rat, whole blood, po, p.o. (i.g.), 10 mg/kg, read-out: Blood concentration (Cmax, ng/mL)): 423 ng/mL
Cc1c(NC(=O)c2nc3c(n2C)CCN(C[C@H](C)O)C3)cncc1-c1cccc(-c2nc3cc(CN4CC[C@@H](C(=O)O)C4)cc(Cl)c3o2)c1C [Example 30, (R)-1-(((7-chloro-2-(3-(5-(5-((S)-2-hydroxypropyl))-1-methyl-4,5,6,7-tetrahydro-1H-imidazo[4,5-c]pyridine-2-carboxamido)-4-methylpyridin-3-yl)-2-methylphenyl)benzo[d]oxazole-5-yl)methyl)pyrrolidine-3-carboxylic acid] | no abnormal body weight or behavior | > 1000 | 79 | –
